Assay [1] addresses Gastrin/cholecystokinin type B receptor (Cavia porcellus). Nature of the assay: Binding affinity for Cholecystokinin type B receptor in guinea pig cortex by using [125I]BH-CCK-8 as radioligand.
The target is the same in assay [2]. The assay is described as above. This is another data set of the same source.
The target is the same in assay [3]. Briefly: Binding affinity towards cholecystokinin type B receptor in guinea pig cortex by using [125I]BH-CCK-8 as radioligand.

This is an account of results in BindingDB's records for doi:10.1021/jm00113a023 (Abbott Laboratories, 1991).

pIC50: −log10 of the molar value. *1 amine or outer side, *2 acyl side, *3 side chain or, on linkers, in order; H or OH if unused. Where a SMILES comes first, the peptide text is derived from it. Side-chain parts run from the residue outwards. [ ]: non-standard residue; d: D form. The star is where a group is joined. NH(1-naphthyl) = c1ccc2c(N*)cccc2c1; NHPh(4-CF3) = FC(F)(F)c1ccc(N*)cc1; hCit = NC(=O)NCCCC[C@H](N)C(=O)O; NH(2-Me-phenyl) = Cc1ccccc1N*; 3Abz = Nc1cccc(C(=O)O)c1; Orn = NCCC[C@H](N)C(=O)O; βNA = c1ccc2cc(N*)ccc2c1; Boc = CC(C)(C)OC(=O)*; X1 = Clc1cccc(Cl)c1N*; X7 = Clc1cccc(N*)c1Cl; CO = O=C([*:1])[*:2]; X2 = CC(C)c1ccccc1N*

Regarding `CC(C)(C)OC(=O)N[C@@H](Cc1c[nH]c2ccccc12)C(=O)N[C@@H](CCCCNC(=O)Nc1ccc2ccccc2c1)C(=O)N[C@@H](CC(=O)O)C(=O)N[C@@H](Cc1ccccc1)C(N)=O` [3-[2-[2-tert-Butoxycarbonylamino-3-(1H-indol-3-yl)-propionylamino]-6-(3-naphthalen-2-yl-ureido)-hexanoylamino]-N-(1-carbamoyl-2-phenyl-ethyl)-succinamic acid] (Boc-WK([CO-βNA])DF-NH2), the pIC50 in assay [1] is 5.49.

In assay [1], `CC(C)(C)OC(=O)N[C@@H](Cc1c[nH]c2ccccc12)C(=O)N[C@@H](CCCCNC(=O)Nc1cccc2ccccc12)C(=O)N[C@@H](CC(=O)O)C(=O)N[C@@H](Cc1ccccc1)C(N)=O` [3-[2-[2-tert-Butoxycarbonylamino-3-(1H-indol-3-yl)-propionylamino]-6-(3-naphthalen-1-yl-ureido)-hexanoylamino]-N-(1-carbamoyl-2-phenyl-ethyl)-succinamic acid] (Boc-WK([CO-NH(1-naphthyl)])DF-NH2) gave a pIC50 of 4.96. Against the preceding molecule, the pIC50 is 0.53 log units lower.

For the molecule `CC(C)c1ccccc1NC(=O)NCCCC[C@H](NC(=O)[C@H](Cc1c[nH]c2ccccc12)NC(=O)OC(C)(C)C)C(=O)N[C@@H](CC(=O)O)C(=O)N[C@@H](Cc1ccccc1)C(N)=O` [3-{2-[2-tert-Butoxycarbonylamino-3-(1H-indol-3-yl)-propionylamino]-6-[3-(2-isopropyl-phenyl)-ureido]-hexanoylamino}-N-(1-carbamoyl-2-phenyl-ethyl)-succinamic acid] (Boc-WK([CO-X2])DF-NH2), in assay [1], the pIC50 was 5.24.

Turning to `CC(C)(C)OC(=O)N[C@@H](Cc1c[nH]c2ccccc12)C(=O)N[C@@H](CCCCNC(=O)Nc1c(Cl)cccc1Cl)C(=O)N[C@@H](CC(=O)O)C(=O)N[C@@H](Cc1ccccc1)C(N)=O` [3-{2-[2-tert-Butoxycarbonylamino-3-(1H-indol-3-yl)-propionylamino]-6-[3-(2,6-dichloro-phenyl)-ureido]-hexanoylamino}-N-(1-carbamoyl-2-phenyl-ethyl)-succinamic acid] (Boc-WK([CO-X1])DF-NH2), in assay [1], the pIC50 is 5.15. This pIC50 and that of the molecule before are within 0.2 log units of each other.

As to `CC(C)(C)OC(=O)N[C@@H](Cc1c[nH]c2ccccc12)C(=O)N[C@@H](CCCC/N=C(\S)Nc1ccccc1Cl)C(=O)N[C@@H](CC(=O)O)C(=O)N[C@@H](Cc1ccccc1)C(N)=O`, in assay [2], the pIC50 was 5.54.

`CC(C)(C)OC(=O)N[C@@H](Cc1c[nH]c2ccccc12)C(=O)N[C@@H](CCCCNC(=O)Nc1ccc(C(F)(F)F)cc1)C(=O)N[C@@H](CC(=O)O)C(=O)N[C@@H](Cc1ccccc1)C(N)=O` [3-{2-[2-tert-Butoxycarbonylamino-3-(1H-indol-3-yl)-propionylamino]-6-[3-(4-trifluoromethyl-phenyl)-ureido]-hexanoylamino}-N-(1-carbamoyl-2-phenyl-ethyl)-succinamic acid] (Boc-WK([CO-NHPh(4-CF3)])DF-NH2) gave a pIC50 in assay [1] of 6.07.

`Cc1ccccc1NC(=O)NCCC[C@H](NC(=O)[C@H](Cc1c[nH]c2ccccc12)NC(=O)OC(C)(C)C)C(=O)N[C@@H](CC(=O)O)C(=O)N[C@@H](Cc1ccccc1)C(N)=O` [3-[2-[2-tert-Butoxycarbonylamino-3-(1H-indol-3-yl)-propionylamino]-5-(3-o-tolyl-ureido)-pentanoylamino]-N-(1-carbamoyl-2-phenyl-ethyl)-succinamic acid] (Boc-W[Orn]([CO-NH(2-Me-phenyl)])DF-NH2): the pIC50 in assay [1] is 4.82.

With `COC(=O)c1cccc(NC(=O)NCCCC[C@H](NC(=O)[C@H](Cc2c[nH]c3ccccc23)NC(=O)OC(C)(C)C)C(=O)N[C@@H](CC(=O)O)C(=O)N[C@@H](Cc2ccccc2)C(N)=O)c1` (Boc-WK([CO-3Abz-OMe])DF-NH2), the pIC50 in assay [3] was 5.85.

As for `CC(C)(C)OC(=O)N[C@@H](Cc1c[nH]c2ccccc12)C(=O)N[C@@H](CCCCNC(N)=O)C(=O)N[C@@H](CC(=O)O)C(=O)N[C@@H](Cc1ccccc1)C(N)=O` [3-{2-[2-tert-Butoxycarbonylamino-3-(1H-indol-3-yl)-propionylamino]-6-ureido-hexanoylamino}-N-(1-carbamoyl-2-phenyl-ethyl)-succinamic acid] (Boc-W[hCit]DF-NH2), in assay [1], the pIC50 was 6.00.

Take `CC(C)(C)OC(=O)N[C@@H](Cc1c[nH]c2ccccc12)C(=O)N[C@@H](CCCCNC(=O)Nc1cccc(Cl)c1Cl)C(=O)N[C@@H](CC(=O)O)C(=O)N[C@@H](Cc1ccccc1)C(N)=O` [3-{2-[2-tert-Butoxycarbonylamino-3-(1H-indol-3-yl)-propionylamino]-6-[3-(2,3-dichloro-phenyl)-ureido]-hexanoylamino}-N-(1-carbamoyl-2-phenyl-ethyl)-succinamic acid] (Boc-WK([CO-X7])DF-NH2): the pIC50 in assay [3] was 5.52.
